{
  "source": "patent US20240197704A1",
  "about": "“TREATMENT METHODS AND CO[…]” (Johns Hopkins University, priority 2021, published 2024)",
  "key": {"[1]": {"system": "patient with pathogenic SYNGAP1 variant", "experiment": "EEG, hypnogram and quantitative EEG analysis pre- and post-PMP (case study)", "assay_type": "in vivo, human", "procedure": "EEGs used for analysis were recorded with a 10-20 electrode placement system. EEGs were reviewed in Persyst (version 14, Persyst Development Corporation, Prescott, AZ). Long-duration continuous EEGs (≥16 h) that included awake and sleep states were reviewed in non-overlapping 10-second epochs. Each epoch was analyzed for the presence or absence of abnormalities and were given a binary score (1=present, 0=absent). The findings that were scored were abnormal slowing (generalized or focal, FIGS. 3A, B) and epileptiform discharges (generalized or focal, FIGS. 3C,D).\nIn order to characterize and quantify the clustered nature of spikes, hierarchical clustering analysis was implemented. Hierarchical clustering analysis groups data points based on Euclidean distance and the size of clusters were determined by the clustering coefficient. Average number of spike events in a cluster was computed for a sequence of increasing clustering coefficients, and the progressions for spike subtypes were compared. The rate at which the average spike events increased with respect to clustering coefficient and the size characterized the clustered nature of spike events.\nSleep stages were manually scored in 10 second epochs. FFT was applied to 10 second epochs in Sirenia Sleep software (Pinnacle Tech. Inc, Kansas USA) for further EEG analysis. […] To analyze the presence of similar gamma dysregulation in REM and NREM transition points, linear regression analysis was done on 10 min segment of the REM to NREM transition point"}, "[2]": {"system": "juvenile HET+/- (Syngap1+/-) mice", "experiment": "24 h vEEG quantitative EEG (gamma slope, delta power), with or without 6 h sleep deprivation", "assay_type": "in vivo", "conditions": "for delta power during NREM: one-way ANOVA", "procedure": "(§1) 24 h tethered vEEG recording was performed for Het+/− mice and their age- and sex matched WT littermates at P21-P30, followed by telemetric vEEG for 24 h with 6 h SD at P35. Quantitative EEG (qEEG) analysis included the frequency bands: delta (0.5-4.0 Hz), theta(5.5-8.0 Hz), alpha (8.0-13.0 Hz), beta (13.0-30 Hz), and gamma (35-50 Hz). Linear regression of gamma frequency power during transition states from wake to sleep was quantified. Spike frequency over 24 h EEG was scored by a blind reviewer based on previously published parameters. The effect of low-dose PMP (2 mg/kg, IP, BD), an AMPA receptor antagonist, on these potential qEEG biomarkers was investigated. Additionally, movement analysis was performed using infrared cameras to trace fast-active movements between 5 am-7 am. 24 h telemetric vEEG was recorded during marble burying and novel object behavioral tests."}, "[3]": {"system": "juvenile HET+/- (Syngap1+/-) mice", "experiment": "Movement analysis of fast-active events with infrared cameras", "assay_type": "in vivo", "conditions": "5-7 am, dark cycle; HET+/- with low-dose PMP vs WT+/+", "procedure": "as §1"}, "[4]": {"system": "juvenile HET+/- (Syngap1+/-) mice", "experiment": "Spike frequency over 24 h EEG", "assay_type": "in vivo", "conditions": "low-dose PMP", "procedure": "as §1"}, "PV+ interneurons": {"system": "PV+ interneurons", "experiment": "AMPA insertion and hyperexcitable phenotype in SynGAP1 mice", "assay_type": "in vivo", "conditions": "low dose"}, "[5]": {"system": "patient with pathogenic SYNGAP1 variant", "experiment": "VB-MAPP assessment for verbal and social skills (case study)", "assay_type": "in vivo, human", "parameters": "key to VB-MAPP Communication: Manding / VB-MAPP Communication: Pointing/gesturing to preferred items / VB-MAPP Communication: Listener Responding-reinforcing/preferred items / VB-MAPP Communication: PECS-Phase 1 / VB-MAPP Cognitive: Motor imitation / VB-MAPP Cognitive: Receptive commands / VB-MAPP Social: Responds to name / VB-MAPP Social: Parallel play / VB-MAPP Social: Independent play / VB-MAPP Health: Feeding / VB-MAPP Behavior: Functional Communication training / VB-MAPP Behavior: Waiting: ↑ = improvement in skill from prior assessment; ↓ = worsening in skill from prior assessment", "procedure": "(§2) A […] […] daughter with pathogenic SYNGAP1 variant was trialed on low doses of PMP.\n(§3) Clinical data from physician's clinic notes; genetic testing reports; developmental scores from occupational therapy, physical therapy, speech and language therapy evaluations; and applied behavioral analysis (ABA) reports were reviewed.\n(§4) Low-dose PMP at 0.2 mg every night was started when they were 25 months of age. […] The Verbal Behavior Milestones Assessment and Placement Program (VB-MAPP) which is an assessment and skills-tracking system to assess the language, learning and social skills of children with autism or other developmental disabilities was used to evaluate their language and other related social skills. […] Patients' baseline VB-MAPP score […] (prior to starting PMP) was 7/45, which improved to 10/45 at 3 months post PMP and then to 17.5/45 at 10 and 13 months post PMP with 37.2% of developmental goals mastered. A follow-up overnight EEG was done […]. […] Multifocal epileptiform discharges, which were rarely observed in their prior EEGs, were noted over the temporal and central head regions bilaterally and occurred independently. At times the centro-temporal discharges occurred synchronously. These discharges were most prevalent in the N2 sleep, which increased in prevalence in subsequent N2 sleep cycles (FIG. 3). Finally, similar to dysregulated gamma seen during behavioral transition points from wake to NREM sleep in Syngap1^+/− mice, we also observed gamma dysregulation in our patient's pre-PMP EEG, where gamma power was increased during NREM when transitioning from REM and, therefore, presenting a positive slope (FIG. 4)."}, "Syngap1+/- mice": {"system": "Syngap1+/- mice", "conditions": "cited from earlier work"}, "[6]": {"system": "patient with pathogenic SYNGAP1 variant", "experiment": "Case study of low-dose PMP: tolerability, therapy evaluations, sleep, clinical seizures", "assay_type": "in vivo, human", "procedure": "as §2\nThe child has now been on low-dose PMP (<2 mg daily) for over one year. We here discuss the safety profile, changes in the electroencephalographic (EEG) features and clinical features, especially in the developmental profile and sleep pre-and-post PMP. We hypothesize that PMP at doses lower than typically used as an antiseizure medication will be safe in patients with SYNGAP1-DEE and help normalize sleep and behavioral disorders. Almost 50% of SYNGAP1-DEE related epilepsies are refractory to treatment from the very onset and currently very few children are prescribed PMP even for seizure control such that only 1 of 57 patients in a cohort study was documented to have been on it(3).\nas §3, §4"}, "[7]": {"conditions": "3 months post PMP (dose 0.2 mg)"}, "[8]": {"conditions": "10 months post PMP (dose 0.3 mg)"}, "[9]": {"conditions": "6 months post-initiation, once daily low-dose PMP at bedtime"}},
  "note": "“Also recorded” adds a separate entry of the source.",
  "data": [
    {"smiles": "N#Cc1ccccc1-c1cc(-c2ccccn2)cn(-c2ccccc2)c1=O", "note": "[PMP, 3-(2-cyanophenyl)-5-(2-pyridyl)-1-phenyl-1,2-dihydropyridin-2-one]", "values": [
      {"measurement": "prevalence of occipital intermittent rhythmic delta activity (OIRDA)", "setting": "[1]; follow-up overnight EEG, post-PMP vs pre-PMP, wake and REM sleep", "value": "overall decrease in the prevalence of the OIRDA; also recorded: significantly reduced post-PMP"},
      {"measurement": "effect on epileptiform discharges", "setting": "[1]; low-dose PMP", "value": "did not have any significant effect on the epileptiform discharges"},
      {"measurement": "prevalence of focal epileptiform discharges", "setting": "[1]; post PMP vs pre PMP EEG", "value": "more prevalent post PMP compared to pre PMP"},
      {"measurement": "gamma dysregulation: gamma slope at REM to NREM transitions", "setting": "[1]; post-PMP EEG vs pre-PMP EEG, same patient", "value": "significantly alleviated; also recorded: significantly rescued"},
      {"measurement": "delta power during NREM", "setting": "[2]; 24 h baseline vEEG, all groups incl. HET+/- PMP", "value": "did not show notable statistical significance across all groups"},
      {"measurement": "delta power during NREM", "setting": "[2]; 24 h vEEG with 6 h SD, all groups", "value": "did not show notable statistical significance across all groups"},
      {"measurement": "gamma slope at behavioral transition points, wake to sleep", "setting": "[2]; low-dose PMP 2 mg/kg, IP, BD, juvenile HET+/-, paired t-test p<0.05", "value": "significantly reduced the gamma slope and rescued the gamma homeostasis"},
      {"measurement": "gamma slope at sleep transition points after 6 h SD", "setting": "[2]; low-dose PMP 2 mg/kg, IP, sleep deprived HET+/-, paired t-test p<0.05", "value": "rescued gamma homeostasis by decreasing the most dominant slope"},
      {"measurement": "level of fast active events (hyperactivity)", "setting": "[3]", "value": "this relation was lost after the low-dose PMP administration"},
      {"measurement": "cortical spike frequency", "setting": "[4]", "value": "reduced spike frequency in high spiking HET^+/− mice however group data was not statistically significant"},
      {"measurement": "excessive AMPA insertion and hyperexcitable phenotype", "setting": "PV+ interneurons", "value": "rescue the excessive AMPA insertion and hyperexcitable phenotype"},
      {"measurement": "VB-MAPP Behavior: Functional Communication training", "setting": "[5]; [7]", "value": "↑"},
      {"measurement": "VB-MAPP Behavior: Waiting", "setting": "[5]; [7]", "value": "↑"},
      {"measurement": "VB-MAPP Cognitive: Motor imitation", "setting": "[5]; [7]", "value": "↑"},
      {"measurement": "VB-MAPP Cognitive: Receptive commands", "setting": "[5]; [7]", "value": "↑"},
      {"measurement": "VB-MAPP Communication: Listener Responding-reinforcing/preferred items", "setting": "[5]; [7]", "value": "↑"},
      {"measurement": "VB-MAPP Communication: Manding", "setting": "[5]; [7]", "value": "↑"},
      {"measurement": "VB-MAPP Communication: PECS-Phase 1", "setting": "[5]; [7]", "value": "↑"},
      {"measurement": "VB-MAPP Communication: Pointing/gesturing to preferred items", "setting": "[5]; [7]", "value": "↑"},
      {"measurement": "VB-MAPP Health: Feeding", "setting": "[5]; [7]", "value": "↑"},
      {"measurement": "VB-MAPP Social: Independent play", "setting": "[5]; [7]", "value": "↑"},
      {"measurement": "VB-MAPP Social: Parallel play", "setting": "[5]; [7]", "value": "↑"},
      {"measurement": "VB-MAPP Social: Responds to name", "setting": "[5]; [7]", "value": "↑"},
      {"measurement": "VB-MAPP score", "setting": "[5]; 3 months post PMP, baseline prior to PMP 7/45", "value": "10/45"},
      {"measurement": "developmental goals mastered", "setting": "[5]; 10 and 13 months post PMP", "value": 37.2, "unit": "%"},
      {"measurement": "VB-MAPP Behavior: Functional Communication training", "setting": "[5]; [8]", "value": "↑"},
      {"measurement": "VB-MAPP Behavior: Waiting", "setting": "[5]; [8]", "value": "↑"},
      {"measurement": "VB-MAPP Cognitive: Motor imitation", "setting": "[5]; [8]", "value": "↑"},
      {"measurement": "VB-MAPP Cognitive: Receptive commands", "setting": "[5]; [8]", "value": "↑"},
      {"measurement": "VB-MAPP Communication: Listener Responding-reinforcing/preferred items", "setting": "[5]; [8]", "value": "↓"},
      {"measurement": "VB-MAPP Communication: Manding", "setting": "[5]; [8]", "value": "↓"},
      {"measurement": "VB-MAPP Communication: PECS-Phase 1", "setting": "[5]; [8]", "value": "↑"},
      {"measurement": "VB-MAPP Communication: Pointing/gesturing to preferred items", "setting": "[5]; [8]", "value": "↑"},
      {"measurement": "VB-MAPP Health: Feeding", "setting": "[5]; [8]", "value": "↑"},
      {"measurement": "VB-MAPP Social: Independent play", "setting": "[5]; [8]", "value": "↑"},
      {"measurement": "VB-MAPP Social: Parallel play", "setting": "[5]; [8]", "value": "↑"},
      {"measurement": "VB-MAPP Social: Responds to name", "setting": "[5]; [8]", "value": "↑"},
      {"measurement": "gamma dysregulation", "setting": "Syngap1+/- mice; PMP-treated Syngap1+/- mice", "value": "significant rescue of the gamma dysregulation"},
      {"measurement": "interictal spikes suppression", "setting": "Syngap1+/- mice; epileptic mice, low dose", "value": "weaker effect on interictal spikes suppression"},
      {"measurement": "tolerability", "setting": "[6]; 1.5 mg daily at bed-time", "value": "tolerating it well"},
      {"measurement": "fine and visual motor skills (occupational therapy evaluation)", "setting": "[6]; [9]", "value": "improvement in their fine and visual motor skills"},
      {"measurement": "independent walking", "setting": "[6]; [9]", "value": "started walking independently"},
      {"measurement": "tone and strength (physical therapy evaluation)", "setting": "[6]; [9]", "value": "significant improvements in their tone and strength"},
      {"measurement": "control of clinical seizures", "setting": "[6]; low dose PMP", "value": "not helpful in controlling their clinical seizures"},
      {"measurement": "motor, cognition, communication, social and behavior domains", "setting": "[6]; low doses 0.2 mg->0.3 mg per day at bedtime", "value": "significant improvements"},
      {"measurement": "tolerability / side effects", "setting": "[6]; low-dose PMP 0.2 mg, then 0.3 mg every night, started", "value": "tolerated the PMP well without any side effects; also recorded: without significant side-effects"},
      {"measurement": "sleep quality (parent report)", "setting": "[6]; once daily low-dose PMP at bedtime", "value": "improvement in sleep quality with fewer night time awakenings"}
    ]}
  ]
}
